# In patent US11964986B1, “9-oxo-9,10-dihydro-6H-pyrano[3,2-b:4,5-b′]dipyridine-8-carboxylic acid derivatives” (REJUVERON TELOMERE THERAPEUTICS AG, priority 2023, dated 2024):
# Read-outs that look alike come from different tables or passages of the source.
# What was measured:
# PAPD7 = PAPD7 (Homo sapiens, UniProt Q5XG87); assay: HBsAg ELISA in HepG2/2.2.15 PAPD5 KO cells (PAPD7 inhibitory activity); assay type: cell-based; conditions: Table 3, HBsAg secretion, 4 days, read-out: pIC50 PAPD7 (PAPD5 KO cells) (converted)
# Sequence of PAPD7 (Q5XG87 whole entry): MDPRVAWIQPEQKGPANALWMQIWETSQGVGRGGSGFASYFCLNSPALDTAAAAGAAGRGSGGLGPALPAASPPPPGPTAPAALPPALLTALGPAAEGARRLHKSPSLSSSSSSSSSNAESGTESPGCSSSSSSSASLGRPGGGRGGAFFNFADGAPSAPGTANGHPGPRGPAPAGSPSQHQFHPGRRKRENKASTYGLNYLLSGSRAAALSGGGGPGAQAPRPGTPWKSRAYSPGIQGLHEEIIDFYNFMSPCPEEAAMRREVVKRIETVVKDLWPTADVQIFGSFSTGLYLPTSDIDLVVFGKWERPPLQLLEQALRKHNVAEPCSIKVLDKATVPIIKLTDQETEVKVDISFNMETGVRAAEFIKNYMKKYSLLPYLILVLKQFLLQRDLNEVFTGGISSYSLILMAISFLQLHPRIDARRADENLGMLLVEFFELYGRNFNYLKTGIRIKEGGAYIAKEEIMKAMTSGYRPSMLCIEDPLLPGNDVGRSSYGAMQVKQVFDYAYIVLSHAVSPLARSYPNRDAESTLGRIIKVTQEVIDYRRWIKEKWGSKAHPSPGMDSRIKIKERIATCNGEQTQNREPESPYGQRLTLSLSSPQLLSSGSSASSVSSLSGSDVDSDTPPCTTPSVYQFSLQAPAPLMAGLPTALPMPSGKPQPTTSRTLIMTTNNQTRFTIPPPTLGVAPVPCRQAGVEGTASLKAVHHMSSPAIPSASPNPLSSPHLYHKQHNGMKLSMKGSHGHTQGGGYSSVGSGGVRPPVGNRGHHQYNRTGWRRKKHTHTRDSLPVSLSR
# PAPD5 [1] = molecular target: T1, PAPD5 (Homo sapiens, UniProt Q8NDF8); assay: cell-based; parameters: endogenous in cells; host or cells: HepG2/2.2.15 PAPD7 knock-out cells (CRISPR/Cas9); conditions: for Fold sel. for PAPD5 over PAPD7: PAPD7 KO cells vs PAPD5 KO cells
# T1 sequence (Q8NDF8 whole entry): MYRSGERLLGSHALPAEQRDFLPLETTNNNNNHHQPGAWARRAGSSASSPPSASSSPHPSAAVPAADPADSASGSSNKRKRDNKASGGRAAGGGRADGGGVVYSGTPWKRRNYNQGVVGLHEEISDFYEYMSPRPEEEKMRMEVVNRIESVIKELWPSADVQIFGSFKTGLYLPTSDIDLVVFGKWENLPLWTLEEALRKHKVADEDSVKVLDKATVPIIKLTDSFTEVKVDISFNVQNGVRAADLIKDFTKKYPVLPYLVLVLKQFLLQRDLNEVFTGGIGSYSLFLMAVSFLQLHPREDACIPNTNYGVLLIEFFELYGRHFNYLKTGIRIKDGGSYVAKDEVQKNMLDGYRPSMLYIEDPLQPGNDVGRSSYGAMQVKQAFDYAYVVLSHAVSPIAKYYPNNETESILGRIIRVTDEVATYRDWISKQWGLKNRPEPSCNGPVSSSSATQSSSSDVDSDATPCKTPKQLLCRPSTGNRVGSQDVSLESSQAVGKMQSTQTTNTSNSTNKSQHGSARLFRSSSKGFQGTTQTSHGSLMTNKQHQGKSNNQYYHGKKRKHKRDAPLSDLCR
# Method: (§1) The hepatocarcinoma HepG2/2.2.15 cell line (hereafter referred to as wild type) was obtained from Millipore (SCC249) and HepG2/2.2.15 PAPD5 knock-out (PAPD5 KO) and PAPD7 knock-out (PAPD7 KO) cells were generated using CRISPR/Cas9 technology.
# To this end, all compounds of the present invention were also tested in an ELISA on HepG2/2.2.15 PAPD5 and PAPD7 KO cell lines to determine the compounds' potency to inhibit PAPD5 and their selectivity for PAPD5 over PAPD7.
# (§2) Cell seeding and addition of the compounds: On day −1, HepG2/2.2.15 cell lines were seeded in U-bottom 96-well plates (Fisher Scientific, 10777241) at a density of 1,5×10^4 cells/well in a final volume of 200 μL complemented DMEM/F12. On day 0, medium was aspirated and cells were washed once with PBS (300 μL/well). Then, PBS was replaced with complemented DMEM/F12 (200 μL/well). Using a Tecan-TE300e chemical dispenser, the compounds were added to the cells with 11 half-log incremental dilutions in dimethyl sulfoxide (DMSO) (Sigma-Aldrich, 276855) within the highest concentration equal to 25 μM (concentration range 1). DMSO was used as no-drug control, and the final DMSO concentration in all wells was 0.5%. […] On day 4, the 96-well plate was centrifuged for 5 min at 300 g to spin down cell debris. 100 μL/well of cell culture supernatant were collected and diluted 1:2 with 100 μL of complemented DMEM/F12 to perform the ELISA.
# (§3) ELISA: Before starting, the “Hepatitis B surface antigen ELISA kit” (Abnova, KA0286) was equilibrated at room temperature (RT) for 1 h. […] The anti-HB plate was sealed using adhesive foil provided with the kit and incubated for 1 h at 37° C. […] After the last wash, the residual liquid was removed by turning the plate upside down and tapping on adsorbent paper. TMB substrate solutions A and B were mixed in equal volumes and 100 μL/well of this mixture were added to each well. The plate was covered with the supplied tray and incubated at RT for 20 min. During this time, a color develops in proportion to the amount of HBsAg bound to anti-HBs. After incubation, the reaction was stopped by adding 100 μL/well of 2N aqueous H2SO4 solution. The optical density of the developed color was read at 450 nm using a Cytation 5 instrument with reference wavelength at 620 nm.
# (§4) CCK8 viability assay: Viability of HepG2/2.2.15 WT, PAPD5 KO and PAPD7 KO cell lines treated with the compounds was determined using the Cell Counting Kit-8 (CCK8, Sigma-Aldrich, 96992) following the manufacturer's instructions. […] During this time, WST-8 is reduced by dehydrogenases in cells to give a yellow-colored product (formazan), which is soluble in the tissue culture medium. The amount of the formazan dye generated by the activity of dehydrogenases in cells is directly proportional to the number of living cells. After 1 h incubation, the optical density of the developed color was read at 450 nm using a Cytation 5 instrument with the reference wavelength at 620 nm. CCK8 optical density values were used for normalization of the ELISA results.
# To determine the IC50 values, the amount of HBsAg (optical density values of the ELISA) was corrected by the number of living cells (CCK8 optical density) per each well. Normalized HBsAg values were used to generate a dose-response curve with a non-linear regression model and applying the Levenberg-Marquardt algorithm.
# [2] = system: HBsAg secretion in HepG2/2.2.15 WT cells (combined effect of PAPD5 and PAPD7 inhibition)
# Method: as §1
# An ELISA was performed using a hepatocarcinoma HepG2/2.2.15 wild type (WT) cell line to assess the potential of the compounds of the present invention as treatments of chronic HBV infection.
# as §2, §3, §4
# To determine the IC50 values, the amount of HBsAg (optical density values of the ELISA) was corrected by the number of living cells (CCK8 optical density) per each well. Normalized HBsAg values were used to generate a dose-response curve with a non-linear regression model and applying the Levenberg-Marquardt algorithm. The percentage of inhibition was calculated relative to the untreated condition (DMSO CTRLs).
# logD(pH 7.4) = assay type: physicochemical
# [3] = kinetic solubility assay at pH 6.5; assay type: physicochemical; conditions: for solubility kinetic: pH 6.5, kinetic from dmso stock
# [4] = Plasma protein binding (fraction unbound)
# From the text: (§5) In the ELISA 10% plasma protein (p=0.1) is used, whereas the assays using iPSCs are run in a plasma protein-free medium.
# PAPD5 [5] = molecular target: T1, PAPD5; assay: Degree of PAPD5 target engagement calculated for test concentrations in assays using iPSCs; parameters: endogenous in cells
# From the text: as §5
# [6] = system: telomere length in patient-derived iPSCs; assay: Telomere restriction fragment (TRF) analysis in patient-derived iPSCs; conditions: for telomere elongation: 4-week treatment, increasing concentrations, FIG. 2B
# Method: Healthy donor- and patient-derived induced Pluripotent Stem Cells (iPSCs), described in Moon et al. 2015, were cultured in feeder-free condition using Matrigel hESC-qualified matrix (Corning, 354277) coated cell culture dishes. For coating, one aliquot of Corning Matrigel hESC-qualified matrix (approximately 300 μL) was thawed on ice and diluted in 25 mL ice-cold DMEM/F-12. […] The coating solution was kept on ice and Matrigel was handled using ice-cold pipette tips. 6 mL of the coating solution were added to one 10 cm cell culture dish and spread by gentle rocking. The coated dishes were then incubated at RT for at least 30 min to let the matrix solidify. The coating solution was aspirated from the dishes and cells were seeded immediately. […] Cells were incubated shortly at 37° C. and the colonies were briefly disaggregated by gentle pipetting or by agitation. The single cell suspension was transferred in a canonical tube with cold 1× PBS and centrifuged at 300 g for 5 min to remove Accutase. Cell pellet was resuspended in an appropriate volume of complemented Essential E8 medium and seeded in a Matrigel-coated dish according to the split ratio.
# The scope of this assay is to isolate telomeric DNA from healthy donor- and patient-derived iPSCs and determine the average length of isolated telomeres.
# The compounds were dissolved in DMSO at a 10 mM stock concentration and diluted in complemented Essential E8 medium at the reported concentrations (Table 6). For untreated samples (0 nM) DMSO only was added to the medium. Culture medium with the diluted compound was replaced daily, and cells were subcultured as described above.
# To carry out the cellular assays, cells were cultured in the presence of PAPD5 inhibitors and collected at different time points. […] (2) At week 4 (Day 28), cells were harvested for DNA isolation to perform Telomere Restriction Fragment (TRF) analysis. […]
# Genomic DNA extraction: At day 28 of exposure, 2×10^6 iPSCs per condition were pelleted and resuspended in 200 μl PBS. […] DNA quantification was performed using a Qubit dsDNA BR quantification kit. […]
# [7] = system: TERC in patient-derived iPSCs; assay: TERC stability by RLM-RACE in patient-derived iPSCs; conditions: 1-week treatment, FIG. 2A
# Method: For coating, one aliquot of Corning Matrigel hESC-qualified matrix (approximately 300 μL) was thawed on ice and diluted in 25 mL ice-cold DMEM/F-12. […] The coating solution was kept on ice and Matrigel was handled using ice-cold pipette tips. 6 mL of the coating solution were added to one 10 cm cell culture dish and spread by gentle rocking. The coated dishes were then incubated at RT for at least 30 min to let the matrix solidify. The coating solution was aspirated from the dishes and cells were seeded immediately. […] Cells were incubated shortly at 37° C. and the colonies were briefly disaggregated by gentle pipetting or by agitation. The single cell suspension was transferred in a canonical tube with cold 1× PBS and centrifuged at 300 g for 5 min to remove Accutase. Cell pellet was resuspended in an appropriate volume of complemented Essential E8 medium and seeded in a Matrigel-coated dish according to the split ratio.
# The compounds were dissolved in DMSO at a 10 mM stock concentration and diluted in complemented Essential E8 medium at the reported concentrations (Table 6). […]
# Samples were spun at 12000 g for 10 min at 4° C. […] The RNA concentration was measured using a Qubit HS RNA quantification kit (Thermo Fisher, Q32852). […]
# DNA was stored overnight at −20° C. before loading on agarose gel. PCR products were quantified using a Qubit dsDNA BR quantification kit (Thermo Fisher, Q32850). […]
# HBsAg = conditions: Table 4; effective concentration that achieved 50% inhibitory effect; from WO2019177937; cited from earlier work
# [8] = Table 3, HepG2/2.2.15 PAPD7 KO cells, HBsAg secretion, 4 days, read-out: pIC50 PAPD5 (PAPD7 KO cells) (converted)
# [9] = Table 5, PAPD7 KO cells, read-out: PIC50 PAPD5 (PAPD7 KO cells) (converted)
# [10] = PAPD5 IC50 by ELISA, HepG2/2.2.15 PAPD7 KO cell line, 10% plasma protein, read-out: IC50ELISA
# [11] = unbound IC50 in protein-free medium, IC50ELISA*fu,ELISA, read-out: IC50u
Molecule,IC50 (PAPD7),IC50 (PAPD5 [1]; [8]),Fold sel. for PAPD5 over PAPD7 (PAPD5 [1]; Table 3),IC50 [2],further results
"COCCCOc1cc2c(nc1C1CC1)-c1c(cc(C(=O)O)c(=O)n1C1CC1)C(C(C)(C)C)O2 (racemic) [Example 508, (RS)-6-(tert-butyl)-2,10-dicyclopropyl-3-(3-methoxypropoxy)-9-oxo-9,10-dihydro-6H-pyrano[3,2-b:4,5-b′]dipyridine-8-carboxylic acid]",0.1 nM,0.1 nM,1.0 Fold,0.0631 nM,–
"COCCCOc1cc2c(nc1OC)-c1c(cc(C(=O)O)c(=O)n1C1CC1)C(C(C)(C)C)C2 (racemic) [Example 702, (RS)-5-(tert-Butyl)-1-cyclopropyl-9-methoxy-8-(3-methoxypropoxy)-2-oxo-1,2,5,6-tetrahydro-1,10-phenanthroline-3-carboxylic acid, reference compound]",–,–,–,2.51 nM,IC50 (PAPD5 [1]; [9]): 3.16 nM
"COCCCOc1cc2c(nc1OC)-c1[nH]c(=O)c(C(=O)O)cc1C(C(C)(C)C)C2 (racemic) [Example 701, (RS)-5-(tert-Butyl)-9-methoxy-8-(3-methoxypropoxy)-2-oxo-1,2,5,6-tetrahydro-1,10-phenanthroline-3-carboxylic acid, reference compound]",–,–,–,–,logD (logD(pH 7.4)): 1.4; solubility kinetic [3]: 186 µM
"COCCCOc1cc2c(nc1OC)-c1[nH]c(=O)c(C(=O)O)cc1C(C(C)C)O2 (racemic) [Example 501, (RS)-6-Isopropyl-2-methoxy-3-(3-methoxypropoxy)-9-oxo-9,10-dihydro-6H-pyrano[3,2-b:4,5-b′]dipyridine-8-carboxylic acid]",39.8 nM,6.31 nM,7.1 Fold,7.94 nM,–
"COCCCOc1cc2c(cc1OC)-c1[nH]c(=O)c(C(=O)O)cc1C(C(C)(C)C)O2 (racemic) [Example 801, (RS)-5-(tert-Butyl)-9-methoxy-8-(3-methoxypropoxy)-2-oxo-1,5-dihydro-2H-chromeno[4,3-b]pyridine-3-carboxylic acid, reference compound]",–,–,–,39.8 nM,IC50 (PAPD5 [1]; [9]): 50.1 nM
"COCCCOc1cc2c(nc1OC)-c1[nH]c(=O)c(C(=O)O)cc1C1(CCCC1)O2 [Example 509, 2′-Methoxy-3′-(3-methoxypropoxy)-9′-oxo-9′,10′-dihydrospiro[cyclopentane-1,6′-pyrano[3,2-b:4,5-b′]dipyridine]-8′-carboxylic acid]",316 nM,31.6 nM,10.4 Fold,25.1 nM,–
"COCCCOc1cc2c(nc1OC)-c1c(cc(C(=O)O)c(=O)n1C)C(C(C)C)O2 (racemic) [Example 502, (RS)-6-Isopropyl-2-methoxy-3-(3-methoxypropoxy)-10-methyl-9-oxo-9,10-dihydro-6H-pyrano[3,2-b:4,5-b′]dipyridine-8-carboxylic acid]",12.6 nM,–,–,6.31 nM,–
"CCn1c2c(cc(C(=O)O)c1=O)C(C(C)C)Oc1cc(OCCCOC)c(OC)nc1-2 (racemic) [Example 503, (RS)-10-Ethyl-6-isopropyl-2-methoxy-3-(3-methoxypropoxy)-9-oxo-9,10-dihydro-6H-pyrano[3,2-b:4,5-b′]dipyridine-8-carboxylic acid]",5.01 nM,1 nM,5.9 Fold,1.26 nM,–
"COCCCOc1cc2c(nc1OC)-c1[nH]c(=O)c(C(=O)O)cc1C(C(C)(C)C)O2 (racemic) [Example 505, (RS)-6-(tert-Butyl)-2-methoxy-3-(3-methoxypropoxy)-9-oxo-9,10-dihydro-6H-pyrano[3,2-b:4,5-b′]dipyridine-8-carboxylic acid]",10 nM,2 nM,4.9 Fold,2 nM,logD (logD(pH 7.4)): 1.1; IC50 (PAPD5 [1]; [9]): 2 nM; fold more soluble than example 701 ([3]; kinetic solubility assay at pH 6.5): 2.6 fold; solubility kinetic [3]: 484 µM
"COCCCOc1cc2c(cc1OC)-c1c(cc(C(=O)O)c(=O)n1C1CC1)C(C(C)(C)C)O2 (racemic) [Example 802, (RS)-5-(tert-Butyl)-1-cyclopropyl-9-methoxy-8-(3-methoxypropoxy)-2-oxo-1,5-dihydro-2H-chromeno[4,3-b]pyridine-3-carboxylic acid, reference compound]",–,–,–,1 nM,–
"COCCCOc1cc2c(nc1OC)-c1c(cc(C(=O)O)c(=O)n1CCO)C(C(C)C)O2 (racemic) [Example 510, (RS)-10-(2-Hydroxyethyl)-6-isopropyl-2-methoxy-3-(3-methoxypropoxy)-9-oxo-9,10-dihydro-6H-pyrano[3,2-b:4,5-b′]dipyridine-8-carboxylic acid]",31.6 nM,5.01 nM,6.4 Fold,15.8 nM,–
"COCCCOc1cc2c(nc1OC)-c1c(cc(C(=O)O)c(=O)n1C1CC1)C(C(C)(C)C)O2 (racemic) [Example 506, (RS)-6-(tert-Butyl)-10-cyclopropyl-2-methoxy-3-(3-methoxypropoxy)-9-oxo-9,10-dihydro-6H-pyrano[3,2-b:4,5-b′]dipyridine-8-carboxylic acid]",0.501 nM,–,6.1 Fold,0.2 nM,"fraction unbound [4]: 0.347; fraction unbound ([4]; fu, ELISA, fraction unbound in ELISA, calculated with p = 0.1): 0.84; IC50 (PAPD5 [1]; [10]): 0.0847 nM; IC50 (PAPD5 [1]; [9]): 0.0794 nM; IC50 (PAPD5 [1]; [11]): 0.07 nM; % Target engagement (X) (PAPD5 [5]; test conc. 0.1 nM): 54%; % Target engagement (X) (PAPD5 [5]; test conc. 0.5 nM): 86%; % Target engagement (X) (PAPD5 [5]; test conc. 2.5 nM): 97%; telomere length after elongation ([6]; 0.5 nM, 4 weeks of treatment): up to 8 kb; telomere elongation [6]: dose-dependently effects telomere elongation; levels of the mature and stable form of TERC [7]: restores the steady-state and physiological levels of the mature and stable form of TERC"
"COCCCOc1cc2c(nc1OC)-c1c(cc(C(=O)O)c(=O)n1C1CC1)C(C(C)C)O2 (racemic) [Example 504, (RS)-10-Cyclopropyl-6-isopropyl-2-methoxy-3-(3-methoxypropoxy)-9-oxo-9,10-dihydro-6H-pyrano[3,2-b:4,5-b′]dipyridine-8-carboxylic acid]",2.51 nM,0.631 nM,4.8 Fold,0.501 nM,–
"(RS)-6-Isopropyl-2-methoxy-3-(3-methoxypropoxy)-9-oxo-9,10-dihydro-6H-pyrano[3,2-b:4,5-b′]dipyridine-8-carboxylic acid [Example 501]",–,–,–,–,EC50 (HBsAg): 94 nM
"COCCCOc1cc2c(nc1OC)-c1c(cc(C(=O)O)c(=O)n1CC(F)F)C(C(C)C)O2 (racemic) [Example 511, (RS)-10-(2,2-Difluoroethyl)-6-isopropyl-2-methoxy-3-(3-methoxypropoxy)-9-oxo-9,10-dihydro-6H-pyrano[3,2-b:4,5-b′]dipyridine-8-carboxylic acid]",5.01 nM,0.794 nM,6.9 Fold,1.26 nM,–
"COCCCOc1cc2c(nc1C1CC1)-c1[nH]c(=O)c(C(=O)O)cc1C(C(C)(C)C)O2 (racemic) [Example 507, (RS)-6-(tert-Butyl)-2-cyclopropyl-3-(3-methoxypropoxy)-9-oxo-9,10-dihydro-6H-pyrano[3,2-b:4,5-b′]dipyridine-8-carboxylic acid]",0.631 nM,0.398 nM,1.8 Fold,0.794 nM,–
COCCCOc1cc2c(cc1OC)-c1cc(=O)c(C(=O)O)cn1[C@H](C(C)C)C2 [RG7834],–,–,–,–,"IC50 (PAPD5 [1]; [10]): 1.64 nM; IC50 (PAPD5 [1]; [11]): 1.35 nM; % Target engagement (X) (PAPD5 [5]; test conc. 0.3 nM): 16%; % Target engagement (X) (PAPD5 [5]; test conc. 1 nM): 38%; % Target engagement (X) (PAPD5 [5]; test conc. 3 nM): 65%; % Target engagement (X) (PAPD5 [5]; test conc. 10 nM): 86%; % Target engagement (X) (PAPD5 [5]; test conc. 30 nM): 95%; telomere elongation [6]: dose-dependently effects telomere elongation; fu, plasma: 0.328; fu, ELISA (plasma): 0.83; levels of the mature and stable form of TERC [7]: restores the steady-state and physiological levels of the mature and stable form of TERC"
